# Data reported in US10189863B2, “5,6-dihydro-4H-benzo[b]thieno-[2,3-d]azepine derivatives” (PULMOCIDE LIMITED, priority 2014, dated 2019).
# Where two headings read alike, the source gives them in different places.
# Key:
# [1] = Cell viability: resazurin assay; format: cell-based, human; conditions: human, HEp2 cells
# Description: Cell Viability: Resazurin Assay
# HEp2 cells were seeded in 384-well plates (10^3/well/50 μL; BD Falcon Ref 353962) in FBS DMEM (5%, containing 2 mM L-glutamine and 1 mM sodium pyruvate) one day before experimentation. Serum-free DMEM (50 μL) was added to test wells while for control wells the media was removed and sterile water (100 μL) was added. Test compounds (0.5 μL DMSO solution) were added to give a final DMSO concentration of 0.5%. Hep2 cells were incubated with each test compound for 5 days (37° C./5% CO2 in 5% FBS) and then resazurin stock solution (5 μL; 0.03%) was added to each well and the plate incubated for a further 6 hr (37° C./5% CO2). The fluorescence of each well at 545 nm (excitation) and 590 nm (emission) was determined using a multi-scanner (Clariostar: BMG Labtech). The percentage loss of cell viability was calculated for each well relative to vehicle (0.5% DMSO) treatment.
# Any apparent increase in cell viability associated with test compound treatment relative to vehicle is consequently tabulated as a negative percentage. Where appropriate, a CC50 value was calculated from the concentration-response curve generated from the concentration-response curve for each test compound.
# RSV B Washington strain = assay: Assessment of RSV induced CPE in HEp2 cells (RSV B Washington strain); format: cell-based; conditions: human respiratory syncytial virus; for IC50: HEp-2, 144 h
# Description: (§1) Assessment of RSV Induced CPE in HEp2 Cells
# (§2) HEp2 cells were seeded (10^3/well/50 μL) in 384-well plates (Catalogue number 353962, BD Falcon, Oxford, UK) in […] containing 2 mM L-glutamine and 1 mM sodium pyruvate one day before infection. RSV A2 strain (#0709161v, NCPV, Public Health England, Wiltshire) or RSV B Washington strain (VR-1580, ATCC, Manassas, Va. 20108) virus solutions were prepared in serum free-DMEM with 2 mM L-glutamine and 1 mM sodium pyruvate, and then added (50 μL/well) to achieve a final virus concentration of 1 MOI. Simultaneously test compounds (0.5 μL DMSO solution) were added to 100 μL of HEp2 cell culture with virus solution to provide a final DMSO solution of 0.5%. Plates were incubated (37° C./5% CO2) for 5 days for studies using RSV A2 strain or 6 days for those using RSV B strain, and then resazurin sodium salt (5 μL of 0.03% solution; Sigma-Aldrich, Dorset, UK) was added to each well and the plate incubated for a further 6 hr (37° C./5% CO2). The fluorescence of each well [545 nm (excitation)/590 nm (emission)] was determined using a multi-scanner (Clariostar: BMG, Buckinghamshire, UK). The percentage inhibition for each well was calculated and the IC50, IC75 and IC90 values were calculated from the concentration-response curve generated for each test compound.
# RSV A2 strain = assay: Assessment of RSV induced CPE in HEp2 cells (RSV A2 strain); format: cell-based; conditions: human respiratory syncytial virus; for IC50: HEp-2, 120 h; for inhibition at 0.01 µg/mL: Inhibition (%) at 0.01 μg/mL
# Description: as §1, §2
# [2] = HEp-2, read-out: RSV B CPE % Inhibition
# [3] = HEp-2, read-out: RSV A2 CPE % Inhibition
# [4] = HEp2 cells, 1 MOI, 6 days, read-out: RSV B CPE IC50
# [5] = HEp-2, HEp2 cells, Inhibition (%) at 1 μg/mL, read-out: RSV B CPE % Inhibition
# [6] = HEp2 cells, 1 MOI, 5 days, read-out: RSV A2 CPE IC50
# [7] = HEp-2, HEp2 cells, Inhibition (%) at 0.1 μg/mL, read-out: RSV A2 CPE % Inhibition
Compound,IC50 (RSV B Washington strain; [4]) [nM],IC50 (RSV A2 strain; [6]) [nM],CC50 at 5 days [1] [nM],IC50 (RSV B Washington strain; read-out: RSV B CPE IC50 (nM)) [nM],inhibition at 1 µg/mL (RSV B Washington strain; [2]) [%],IC50 (RSV A2 strain; read-out: RSV A2 CPE IC50 (nM)) [nM],inhibition at 0.1 µg/mL (RSV A2 strain; [3]) [%],inhibition at 1 µg/mL (RSV B Washington strain; [5]) [%],inhibition at 0.1 µg/mL (RSV A2 strain; [7]) [%],"inhibition at 0.01 µg/mL (RSV A2 strain; HEp-2, HEp2 cells) [%]","inhibition at 0.1 µg/mL (RSV B Washington strain; HEp-2, HEp2 cells, Inhibition (%) at 0.1 μg/mL) [%]"
"O=C(Nc1ccccc1)c1cc2c(s1)-c1ccccc1N(C(=O)c1ccc(NC(=O)c3cccnc3N3CC4(CCOCC4)C3)cc1)CC2 [Example 1, 6-(4-(2-(7-oxa-2-azaspiro[3.5]nonan-2-yl)nicotinamido)benzoyl)-N-phenyl-5,6-dihydro-4H-benzo[b]thieno[2,3-d]azepine-2-carboxamide]",–,–,> 14900,166,77,0.5,98,–,–,–,–
"N#Cc1ccccc1NC(=O)c1cc2c(s1)-c1ccccc1N(C(=O)c1ccc(NC(=O)c3cccnc3N3CC4(CCOCC4)C3)cc1)CC2 [Example 2, 6-(4-(2-(7-oxa-2-azaspiro[3.5]nonan-2-yl)nicotinamido)benzoyl)-N-(2-cyanophenyl)-5,6-dihydro-4H-benzo[b]thieno[2,3-d]azepine-2-carboxamide]",–,–,> 14400,314,69,0.16,91,–,–,–,–
"COc1ccc(C(=O)Nc2ccc(C(=O)N3CCc4cc(C(=O)Nc5ccccc5F)sc4-c4ccccc43)cc2)c(N2CC3(CCOCC3)C2)n1 [Example 3, 6-(4-(6-methoxy-2-(7-oxa-2-azaspiro[3.5]nonan-2-yl)nicotinamido)benzoyl)-N-(2-fluorophenyl)-5,6-dihydro-4H-benzo[b]thieno[2,3-d]azepine-2-carboxamide]",195,1.3,> 13900,–,–,–,–,58,100,–,–
"O=C(Nc1ccccc1F)c1cc2c(s1)-c1ccccc1N(C(=O)c1ccc(NC(=O)c3cc(C4CC4)cnc3N3CC4(CCOCC4)C3)cc1)CC2 [Example 4, 6-(4-(5-Cyclopropyl-2-(7-oxa-2-azaspiro[3.5]nonan-2-yl)nicotinamido)benzoyl)-N-(2-fluorophenyl)-5,6-dihydro-4H-benzo[b]thieno[2,3-d]azepine-2-carboxamide]",49.3,2.1,> 13700,–,–,–,–,83,–,100,–
"Cc1cnc(N2CC3(CCOCC3)C2)c(C(=O)Nc2ccc(C(=O)N3CCc4cc(C(=O)Nc5c(F)cccc5I)sc4-c4ccccc43)cc2)c1 [Example 6, N-(2-Fluoro-6-iodophenyl)-6-(4-(5-methyl-2-(7-oxa-2-azaspiro[3.5]nonan-2-yl)nicotinamido)benzoyl)-5,6-dihydro-4H-benzo[b]thieno[2,3-d]azepine-2-carboxamide]",4.2,0.13,> 12100,–,–,–,–,100,–,100,–
"Cc1cnc(N2CC3(CCOCC3)C2)c(C(=O)Nc2ccc(C(=O)N3CCc4cc(C(=O)Nc5c(F)cccc5C5CC5)sc4-c4ccccc43)cc2)c1 [Example 7, N-(2-Cyclopropyl-6-fluorophenyl)-6-(4-(5-methyl-2-(7-oxa-2-azaspiro[3.5]nonan-2-yl)nicotinamido)benzoyl)-5,6-dihydro-4H-benzo[b]thieno[2,3-d]azepine-2-carboxamide]",98.6,0.15,> 13500,–,–,–,–,94,100,–,–
"Cc1cccc(F)c1NC(=O)c1cc2c(s1)-c1ccccc1N(C(=O)c1ccc(NC(=O)c3cc(C4CC4)cnc3N3CC4(CCOCC4)C3)cc1)CC2 [Example 11, 6-(4-(5-Cyclopropyl-2-(7-oxa-2-azaspiro[3,5]nonan-2-yl)nicotinamido)benzoyl)-N-(2-fluoro-6-methylphenyl)-5,6-dihydro-4H-benzo[b]thieno[2,3-d]azepine-2-carboxamide]",25.9,0.28,> 13500,–,–,–,–,95,93,–,–
"Cc1cccc(F)c1NC(=O)c1cc2c(s1)-c1ccccc1N(C(=O)c1ccc(NC(=O)c3cc4c(nc3N3CC5(CCOCC5)C3)CCOC4)cc1)CC2 [Example 12, N-(4-(2-((2-Fluoro-6-methylphenyl)carbamoyl)-5,6-dihydro-4H-benzo[b]thieno[2,3-d]azepine-6-carbonyl)phenyl)-2-(7-oxa-2-azaspiro[3.5]nonan-2-yl)-7,8-di hydro-5H-pyrano[4,3-b]pyridine-3-carboxamide]",1.3,0.42,> 13200,–,–,–,–,98,–,100,–
"O=C(Nc1c(F)cccc1F)c1cc2c(s1)-c1ccccc1N(C(=O)c1ccc(NC(=O)c3cc4sccc4nc3N3CC4(CCOCC4)C3)cc1)CC2 [Example 13, 6-(4-(5-(7-Oxa-2-azaspiro[3.5]nonan-2-yl)thieno[3,2-b]pyridine-6-carboxamido)benzoyl)-N-(2,6-difluorophenyl)-5,6-dihydro-4H-benzo[b]thieno[2,3-d]azepine-2-carboxamide]",0.96,0.45,> 13100,–,–,–,–,100,–,100,–

# Continued, in another order:
IC50 (RSV B Washington strain; [4]) [nM],IC50 (RSV A2 strain; [6]) [nM],Compound,CC50 at 5 days [1] [nM],IC50 (RSV B Washington strain; read-out: RSV B CPE IC50 (nM)) [nM],inhibition at 1 µg/mL (RSV B Washington strain; [2]) [%],IC50 (RSV A2 strain; read-out: RSV A2 CPE IC50 (nM)) [nM],inhibition at 0.1 µg/mL (RSV A2 strain; [3]) [%],inhibition at 1 µg/mL (RSV B Washington strain; [5]) [%],inhibition at 0.1 µg/mL (RSV A2 strain; [7]) [%],"inhibition at 0.01 µg/mL (RSV A2 strain; HEp-2, HEp2 cells) [%]","inhibition at 0.1 µg/mL (RSV B Washington strain; HEp-2, HEp2 cells, Inhibition (%) at 0.1 μg/mL) [%]"
204,0.66,"CCc1ccccc1NC(=O)c1cc2c(s1)-c1ccccc1N(C(=O)c1ccc(NC(=O)c3cccnc3N3CC4(CCOCC4)C3)cc1)CC2 [Example 17, 6-(4-(2-(7-oxa-2-azaspiro[3.5]nonan-2-yl)nicotinamido)benzoyl)-N-(2-ethylphenyl)-5,6-dihydro-4H-benzo[b]thieno [2,3-d]azepine-2-carboxamide]",> 14300,–,–,–,–,77,100,–,–
> 1440,0.16,"C#Cc1ccc(NC(=O)c2cc3c(s2)-c2ccccc2N(C(=O)c2ccc(NC(=O)c4cccnc4N4CC5(CCOCC5)C4)cc2)CC3)cc1 [Example 18, 6-(4-(2-(7-oxa-2-azaspiro[3.5]nonan-2-yl)nicotinamido)benzoyl)-N-(4-ethynylphenyl)-5,6-dihydro-4H-benzo[b] thieno[2,3-d]azepine-2-carboxamide]",> 14400,–,–,–,–,18,75,–,–
28,0.14,"O=C(Nc1c(F)cccc1F)c1cc2c(s1)-c1ccccc1N(C(=O)c1ccc(NC(=O)c3cccnc3N3CC4(CCOCC4)C3)cc1)CC2 [Example 19, 6-(4-(2-(7-oxa-2-azaspiro[3.5]nonan-2-yl)nicotinamido)benzoyl)-N-(2,6-difluorophenyl)-5,6-dihydro-4H-benzo[b] thieno[2,3-d]azepine-2-carboxamide]",> 14200,–,–,–,–,–,88,–,100
129,0.36,"O=C(Nc1ccc(F)cc1F)c1cc2c(s1)-c1ccccc1N(C(=O)c1ccc(NC(=O)c3cccnc3N3CC4(CCOCC4)C3)cc1)CC2 [Example 20, 6-(4-(2-(7-oxa-2-azaspiro[3.5]nonan-2-yl)nicotinamido)benzoyl)-N-(2,4-difluorophenyl)-5,6-dihydro-4H-benzo[b] thieno[2,3-d]azepine-2-carboxamide]",> 14200,–,–,–,–,80,100,–,–
100,1.3,"O=C(Nc1ccc(Cl)cc1F)c1cc2c(s1)-c1ccccc1N(C(=O)c1ccc(NC(=O)c3cccnc3N3CC4(CCOCC4)C3)cc1)CC2 [Example 21, 6-(4-(2-(7-oxa-2-azaspiro[3.5]nonan-2-yl)nicotinamido)benzoyl)-N-(4-chloro-2-fluorophenyl)-5,6-dihydro-4H-benzo[b]thieno[2,3-d]azepine-2-carboxamide]",> 13800,–,–,–,–,73,100,–,–
